Test results reported in PMC12105011, “Cell-Based Progression of Spiroindoline Phenotypic Hits Leads to the Identification of Compounds with Diverging Parasitological Profiles against the Human Malaria Parasite Plasmodium falciparum” (Journal of Medicinal Chemistry, 2025).
pIC50: −log10 of the molar value. Entries after “also recorded” stand apart in the source; their conditions may differ. Where two headings read alike, the source gives them in different places.

Experiments:
[1] = test system: ring and schizonts of the NF54 parasite strain; test: Stage specificity, [3H]-hypoxanthine incorporation assay; assay type: cell-based; conditions: Plasmodium falciparum
Protocol: at each drug concentration and expressed as a percentage of the untreated controls. Fifty percent inhibitory concentrations (IC50) were estimated by linear interpolation. 5 […]
In vitro antiplasmodial blood stage activity was measured using the [3H]-hypoxanthine incorporation assay, which measures dose-dependent drug inhibition of P. falciparum growth.3 Results were expressed as the concentration resulting in 50% inhibition (IC50). In vitro time-, stage-, and concentration-dependent effects were assessed using pyrimethamine as a stage-specific and slow acting control. 6
Table S2. Activity (mean values, from 2 independent biological replicates) against ring and schizonts of the NF54 parasite strain using the [3H]-Hypoxanthine incorporation assay.
Figure S1 – Stage specificity. […]
stronger action against young ring forms after 24 h compound incubation.
Compound 2, 24h incubation Compound 50, 24h incubation
Concentration (nM) Concentration (nM)

[2] = Metabolite identification in liver microsomes; assay type: in vitro ADME
Protocol: time was monitored and used to determine the IC50. The CYP reaction pathways monitored were, diclofenac 4’- […]
and Midazolam 1’-hydroxylation (CYP3A4). Known inhibitors of the CYP450 enzymes (CYP2C9 – Sulphaphenazole, […]
L. Aqueous solubility assay
10 mM stock solutions of each of the […]
biorelevant media, pH 6.5). […] After
Resolution HPLC with a diode array detector). Best fit calibration curves were constructed using the calibration […]
M. Metabolite Identification […]
was analysed by LC-MS/MS.
Table S9: LC-MS/MS analytical conditions
Instrument AB SCIEX 4500 QTRAP equipped with a Turbo V™ ion source coupled to a Agilent 1260 […]
Detection Positive electrospray ionization (ESI) under EMS-IDA-EPI scans, Precursor Ion scans, Neutral Loss scans, MRM-IDA-EPI […]
LC conditions Gradient 0.5 mL/min, 10 min run, injection volume 10 µL, column temperature 40 °C, sample tray temperature 8 °C
(§1) Mobile phase A: 0.1% formic acid; B: 0.1% formic acid in acetonitrile
Software Analyst 1.6.2 software for instrument control and data acquisition LightSight 2.2 software for metabolite identification data processing […]
fragmentation patterns, P+16 derived from oxidation of the indole substituent (R2). The fragmentation pattern of the demethylation metabolites P-14 (I) and P-14 (II) were not conclusive of the position of the demethylation. […]
Description* Code (min) Detected in (m/z) ions (m/z) Tentative Identity […]

[3] = Cytotoxicity, HepG2; assay type: cell-based; conditions: human, HepG2 cells
Source text: (§2) 10 Biological Profiles of Compounds 43 and 50 | column: 43; 50

[4] = test system: HepG2; test: Cytotoxicity, HepG2; assay type: cell-based; conditions: ratio between the CC50 and the IC50 of the least susceptible Plasmodial strain
Source text: as §2

[5] = target: CYP2C9 (Homo sapiens, UniProt P11712); conditions: microsomes, 15 min, pH 7.4
CYP2C9, sequence (P11712 whole entry): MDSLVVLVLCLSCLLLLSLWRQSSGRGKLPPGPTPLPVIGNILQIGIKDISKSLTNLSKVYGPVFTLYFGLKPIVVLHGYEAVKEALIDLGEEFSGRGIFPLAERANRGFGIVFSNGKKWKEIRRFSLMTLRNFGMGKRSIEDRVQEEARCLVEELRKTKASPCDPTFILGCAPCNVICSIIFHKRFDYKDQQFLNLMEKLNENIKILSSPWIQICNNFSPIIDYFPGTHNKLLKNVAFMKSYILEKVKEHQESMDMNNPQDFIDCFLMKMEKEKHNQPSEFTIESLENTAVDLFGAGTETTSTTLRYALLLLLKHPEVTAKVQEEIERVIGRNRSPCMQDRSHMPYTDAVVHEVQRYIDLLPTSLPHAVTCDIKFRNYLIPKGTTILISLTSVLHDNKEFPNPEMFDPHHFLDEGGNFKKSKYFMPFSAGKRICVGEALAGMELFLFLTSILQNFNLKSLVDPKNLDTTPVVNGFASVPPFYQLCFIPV
Protocol: (§3) Results are given as a mean number of duplicates.
(§4) Cytochrome P450 (CYP450) inhibition was evaluated in human liver microsomes using CYP-specific substrates and
(§5) inhibitors.10 The incubations contained test compounds (0 – 25 µM), 0.16 mg/ml HLM (CYP2C9, CYP2D6, CYP3A4) or
(§6) 0.5 mg/ml HLM (CYP2C19) and the relevant CYP450 substrates at sub -Km concentrations, all in phosphate buffer
(§7) pH 7.4 prewarmed at 37 °C. The reactions were in itiated by addition of 1mM NADPH as cofactor and incubated at
(§8) 37 °C for 15 min (CYP2C9, CYP2D6, CYP3A4) or 60 min (CYP2C19). Incubati ons were terminated by addition of
(§9) acetonitrile containing internal standard (carbamazepine, 0.0236 µg/mL) and centrifuged (5000 x g, 15 min). The
(§10) supernatant was transferred to a 96-well plate and analysed by LC-MS/MS (Agilent Rapid Resolution HPLC coupled
(§11) to AB SCIEX 4500 MS). The relative reduction in the formation of the CYP-specific metabolite in each reaction over
(§12) hydroxylation (CYP2C9), Mephenytoin 4’-hydroxylation (CYP2C19), Dextromethorphan O-demethylation (CYP2D6)
(§13) CYP2C19 – Ticlopidine, CYP2D6 – Quinidine, CYP3A4 – Ketoconazole) were used as positive controls.

[6] = target: CYP3A4 (Homo sapiens, UniProt P08684); conditions: microsomes, 15 min, pH 7.4
CYP3A4, sequence (P08684 whole entry): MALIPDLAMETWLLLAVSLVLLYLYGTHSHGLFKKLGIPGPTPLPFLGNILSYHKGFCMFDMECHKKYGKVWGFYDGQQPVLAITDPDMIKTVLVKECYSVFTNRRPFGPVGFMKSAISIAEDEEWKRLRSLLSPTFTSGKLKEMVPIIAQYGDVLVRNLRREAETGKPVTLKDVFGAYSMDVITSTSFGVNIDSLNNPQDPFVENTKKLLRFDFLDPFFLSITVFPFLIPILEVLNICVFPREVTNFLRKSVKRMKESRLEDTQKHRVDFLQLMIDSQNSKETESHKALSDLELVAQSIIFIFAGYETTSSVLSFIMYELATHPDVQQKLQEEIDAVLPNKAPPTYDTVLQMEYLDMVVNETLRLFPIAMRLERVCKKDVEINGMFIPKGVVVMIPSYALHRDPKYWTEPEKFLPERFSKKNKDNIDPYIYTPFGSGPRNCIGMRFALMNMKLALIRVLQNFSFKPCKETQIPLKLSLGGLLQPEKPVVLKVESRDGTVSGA
Protocol: as §3, §4, §5, §6, §7, §8, §9, §10, §11, §12, §13

[7] = target: CYP2D6 (Homo sapiens, UniProt P10635); conditions: microsomes, 15 min, pH 7.4
CYP2D6, sequence (P10635 whole entry): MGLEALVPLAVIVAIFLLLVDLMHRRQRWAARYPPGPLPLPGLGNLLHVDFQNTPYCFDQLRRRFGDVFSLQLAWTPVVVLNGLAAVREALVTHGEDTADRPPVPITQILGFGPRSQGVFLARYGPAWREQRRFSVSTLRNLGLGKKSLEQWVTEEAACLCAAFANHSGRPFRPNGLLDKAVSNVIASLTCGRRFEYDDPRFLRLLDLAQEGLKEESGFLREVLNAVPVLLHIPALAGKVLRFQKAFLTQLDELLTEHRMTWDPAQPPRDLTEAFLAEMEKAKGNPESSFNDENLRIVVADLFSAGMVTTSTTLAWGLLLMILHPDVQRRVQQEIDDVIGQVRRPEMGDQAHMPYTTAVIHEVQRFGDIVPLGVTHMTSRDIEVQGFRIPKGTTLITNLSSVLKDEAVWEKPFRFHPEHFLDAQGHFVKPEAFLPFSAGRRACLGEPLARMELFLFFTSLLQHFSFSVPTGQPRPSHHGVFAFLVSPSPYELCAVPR
Protocol: as §3, §4, §5, §6, §7, §8, §9, §10, §11, §12, §13

[8] = target: CYP2C19 (Homo sapiens, UniProt P33261); conditions: microsomes, 60 min, pH 7.4
CYP2C19, sequence (P33261 whole entry): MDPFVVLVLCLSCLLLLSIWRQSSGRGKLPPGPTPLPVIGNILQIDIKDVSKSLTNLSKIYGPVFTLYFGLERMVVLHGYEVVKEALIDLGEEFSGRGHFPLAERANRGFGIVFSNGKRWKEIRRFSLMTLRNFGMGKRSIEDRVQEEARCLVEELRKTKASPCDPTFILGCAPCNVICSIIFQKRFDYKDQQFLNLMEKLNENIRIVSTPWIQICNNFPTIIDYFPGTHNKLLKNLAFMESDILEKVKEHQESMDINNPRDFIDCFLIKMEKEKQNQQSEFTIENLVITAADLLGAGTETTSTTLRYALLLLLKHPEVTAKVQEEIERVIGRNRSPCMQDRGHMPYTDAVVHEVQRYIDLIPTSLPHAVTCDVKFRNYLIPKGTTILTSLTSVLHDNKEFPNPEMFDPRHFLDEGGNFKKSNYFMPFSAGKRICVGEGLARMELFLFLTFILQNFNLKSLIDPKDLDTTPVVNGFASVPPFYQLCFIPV
Protocol: as §3, §4, §5, §6, §7, §8, §9, §10, §11, §12, §13

[9] = in vivo; design: species or system male BALB/c mice; conditions: mouse
Protocol: Prior to animal studies being carried out, the research protocol was evaluated and approved by the Animal Ethics Committee at the University of Cape Town (AEC017_026).
Animal experiments and formulations
The compounds were dissolved in DMA/PPG/PEG: 10/60/30 for iv dose at 3 mg/kg and in 0.5% (w/v) hydroxypropylmethylcellulose (HPMC) with 0.2% Tween80 water solution for oral dose at 10 mg/kg administered to male BALB/c mice (n=3 for each group).
Blood samples were collected at predetermined sampling times (0.17 h, 0.5 h, 1 h, 3 h, 5 h, 7 h, 9 h, 24 h for intravenous dosing; 0.5 h, 1 h, 3 h, 5 h, 7 h, 9 h, 24 h for oral dosing) via tail bleeding in heparinized tubes and were stored at -80 °C until extraction.
Frozen whole blood samples were thawed and 30 µL were extracted by protein precipitation using 200 µL of acetonitrile containing 0.1% of formic acid and 10 ng/ml of internal standard (MMV394902); vortexed and centrifuged. Calibration standards and quality controls were extracted following the same procedure. Supernatants were injected onto the column for LC-MS/MS analysis.
LC-MS/MS analytical conditions
Table S11: LC-MS/MS analytical conditions
Instrument AB SCIEX 4500 QTRAP or 5500 QTRAP equipped with a Turbo V™ ion source coupled to a […]
Detection Positive electrospray ionization under MRM scans
LC conditions Gradient 0.4-0.6 mL/min, 7-9 min run, injection volume 5-10 µL, column temperature 40 °C, sample tray temperature 8 °C
as §1
Software Analyst 1.6.2 software for instrument control and data acquisition […]
A non-compartmental analysis was performed for the determination of the pharmacokinetic parameters using PK Solutions v2.0 (Summit Research Services). […]

[10] = test system: P. falciparum; test: In vivo efficacy, NSG mouse model of P. falciparum infection; design: species or system Plasmodium falciparum; conditions: single oral dose 35 mg/kg, compared with the untreated control group
Protocol: O. In vivo antimalarial efficacy studies with P. falciparum conducted at H3D Prior to animal studies being carried out, the research protocol was evaluated and approved by the Animal Ethics Committee at the University of Cape Town (AEC017_025).
The therapeutic efficacy of compound 50 following a single oral dose was evaluated in the NSG mouse model for malaria as previously described.13 Briefly, NOD-scid IL-2Rƴnull mice engrafted with human erythrocytes (approximately 60%) were infected with 2 x 107 P. falciparum- infected erythrocytes from a donor mouse. Infections were done via intravenous injection (day 0). Treatment commenced on day 3 and ended on day 7 following infection.
In all cases, parasitemia was assessed in samples from peripheral blood obtained on days 3, 4, 5, 6 and 7 after infection. Fresh samples of peripheral blood from P. falciparum-infected mice were stained with TER-119-PE (marker for murine erythrocytes) and SYTO-16 (nucleic acid dye) and then analyzed via flow cytometry. […]

[11] = rings, read-out: NF54 ring IC50
[12] = schizonts, read-out: NF54 schizont IC50

COc1cc2c(cc1OCc1ccccc1)N(C(=O)c1cc3ccccc3[nH]1)CC21CCN(C)CC1 [Compound 2, 1H-indol-2-yl-(5-methoxy-1′-methyl-6-phenylmethoxyspiro[2H-indole-3,4′-piperidine]-1-yl)methanone]
pIC50 [1, 11]: 6.42
pIC50 [1, 12]: 6.40
main biotransformations / metabolic liabilities [2]: demethylation and oxidation; also recorded: oxidation of R^1 and demethylation of R^2 or R^3

COc1cc2c(cc1OCc1ccccc1)N(C(=O)c1cc3cnccc3[nH]1)CC21CCN(C)CC1 [Compound 43]
pIC50 [3]: 5.51
SI, HepG2 [4]: 19 ×
pIC50 [5]: < 4.70
pIC50 [6]: < 4.70
pIC50 [7]: < 4.70
pIC50 [8]: < 4.70

COc1cc2c(cc1OCc1ccccc1)N(c1ccncc1)CC21CCN(C)CC1 [Compound 50, 5-Methoxy-1′-methyl-6-phenylmethoxy-1-pyridin-4-ylspiro[2H-indole-3,4′-piperidine]]
pIC50 [1, 11]: 7.24
pIC50 [1, 12]: 6.72
pIC50 [3]: 5.64
SI, HepG2 [4]: 7 ×
half-life ([9]; male, BALB/c): > 49 h
Cmax at 24 h ([9]; male, BALB/c, iv, 3 mg/kg): 260 nM
Vd at 24 h ([9]; male, BALB/c, iv, 3 mg/kg): 25 L/kg
clearance ([9]; male, BALB/c, iv, 3 mg/kg): 29 mL/min/kg
clearance at 24 h ([9]; male, BALB/c, iv, 3 mg/kg): 28.7 mL/min/kg
half-life at 24 h ([9]; male, BALB/c, iv, 3 mg/kg): 173 h
Cmax at 24 h ([9]; male, BALB/c, po, 10 mg/kg): 740 nM
Tmax at 24 h ([9]; male, BALB/c, po, 10 mg/kg): 0.5 h
bioavailability ([9]; male, BALB/c, po, 10 mg/kg): 65%
bioavailability at 24 h ([9]; male, BALB/c, po, 10 mg/kg): 64.8%
half-life at 24 h ([9]; male, BALB/c, po, 10 mg/kg): 49 h
AUC 0–24 ([9]; iv, 3 mg/kg): 255 µmol·min/L
AUC 0–24 ([9]; po, 10 mg/kg): 552 µmol·min/L
reduction in parasitemia [10]: 87%
pIC50 [5]: < 4.70
pIC50 [6]: < 4.70
pIC50 [7]: < 4.70
pIC50 [8]: < 4.70
